The results in this text go back to patent US8778889B2, “Antimicrobial decapeptide oral hygiene treatment” (The United States of America as represented by the …, priority 2003, dated 2014).

Experiment [1] deals with oral biofilms formed on saliva-coated HA disks by salivary bacteria. Put plainly: In vitro plaque assay, viable counts of oral biofilms on saliva-coated HA disks. Type of experiment: cell-based, human salivary bacteria. The text has this:
In conjunction with the dual flow cell system, a modification of an in vitro plaque model of biofilm formation described by Guggenheim et al. (Guggenheim et al., 2001) was used to determine the effects of tested antimicrobials and other agents on developed oral biofilms (see Appendix I for details). HA disks (Clarkson, south Williamsport, Pa.) were employed as substrates for salivary bacteria to form biofilms.
To determine the inhibitory activity of KSL on developed oral biofilms, disks containing 45 h-old biofilms were transferred to wells containing aqueous KSL (200 μg/ml; 1 ml/well). Following 30 min exposure at 37° C., disks were rinsed with 3×1 ml of saline and transferred to sterile 15 ml polypropylene tubes containing 1 ml PBS. Biofilm cells adherent to surfaces (after treatment) were recovered by sonicating for 2 min at 5 watts with a Microson ultrasonic cell disrupter equipped with a cup horn (Misonix Inc., Farmingdale, N.Y.). Settings including the time interval used in the sonication were predetermined empirically to yield maximal recovery of adherent biofilm cells.
The effect of KSL on disrupted biofilms was assessed by recovering biofilm cells from HA disks (45 h-old biofilms) through sonication as described above. The detached biofilm cells (in sterile dH2O) were mixed with an equal volume of aqueous KSL to obtain a final peptide concentration of 200 μg/ml, and the reaction mixtures incubated at 37° C. for 30 min. The interactions of KSL and suspended biofilm cells were terminated by washing in PBS.
To determine the effect of the surface-active agent (benzalkonium chloride; Sigma, St. Louis, Mo.) in promoting the killing of intact biofilms by KSL, 66 h-old oral biofilms were treated with KSL (200 μg/ml), benzalkonium chloride (0.001%), or a combination of the two agents, followed by viable counts determinations and confocal laser scanning microscopy of treated samples.
Viable counts of biofilm cells derived from treated disks or disrupted biofilms were determined by spiral plating serially diluted samples onto blood agar plates. Distilled water or 0.12% aqueous chlorhexidine digluconate (Sigma) was used as the negative or positive control, respectively. The 45 h-old biofilms were exposed to chlorhexidine for 1 min, and to water for 30 min at 37° C.
In this assay, HA disks (Clarkson Chromatography Products, Inc., South Williamsport, Pa.) were used as surfaces on which plaque formation can occur. Before use, sterile HA disks were conditioned in the wells of a 24-well microtiter plate (Becton Dickinson, Franklin Lakes, N.J.) containing 50% sterile saliva by incubating at room temperature for a minimum of two hours on a rotating platform at 95 rpm. The saliva was removed and each well inoculated with isolated salivary bacteria at a bacterial cell concentration of 1.0×10^7 cells/ml in sterile 50% whole saliva. After two hours of incubation (with rotation) at 37° C. to allow the bacteria to adhere to surfaces, unattached bacteria were removed and replaced with supplemented saliva-based medium. The plates were incubated with rotation at 37° C. for 45 h (with medium replaced three times), or 66 h (with medium replaced five times) in a CO2 incubator prior to treatments, and the recovery of biofilm cells from treated or untreated disks.
In these studies, KSL or KSL-W was used at 200 μg/ml, whereas Bzl and CPC were used at 0.001% and 0.0025%, respectively. […]

For experiment [2], the system named is biofilms grown on saliva-coated HA surfaces. In words: Live/Dead BacLight staining with confocal laser scanning microscopy of treated biofilms. Type of experiment: cell-based, human salivary bacteria. Conditions: 66 h-old biofilms; KSL 200 μg/ml, Bzl 0.001%, CHX 0.12%. How it is done:
(A) Effect of KSL on intact versus disrupted 45 h biofilms formed on saliva-coated HA disks by salivary bacteria using the in vitro plaque assay. A Mann-Whitney test was used for comparison of log reductions in CFU between the experimental groups (KSL-treated intact or disrupted biofilms) with the control groups (dH2O-treated intact or disrupted biofilms). The single asterisk represents a statistically significant difference between KSL and dH2O-treated intact biofilms (p<0.05). Likewise, double asterisks represent a statistically significant difference between KSL and dH2O-treated disrupted biofilms (p<0.01). […] (B) Effect of benzalkonium chloride in promoting the bactericidal activity of KSL against 66 h-old intact oral biofilms formed on saliva-coated HA disks using the in vitro plaque system. A Kruskal-Wallis test was used to compare log reductions in CFU among various treatment groups including the control group (dH2O-treated). The single asterisk represents a statistically significant difference between the combined treatment of KSL and benzalkonium chloride (Bzl) and dH2O (p<0.001), KSL (p<0.01), or Bzl (p<0.01)-treated intact biofilms. Double asterisks represent a statistically significant difference between CHX and dH2O (p<0.001) or Bzl (P<0.05)-treated intact biofilms. […] No significant difference in viability counts was observed between CHX-treated versus the combined use of KSL and Bzl. For (A) and (B), the data represent the determinations of one of three separate experiments, each performed in quadruplicate. Bars represent standard deviations. (C) Confocal images of control and treated biofilms grown on saliva-coated HA surfaces. Live/Dead BacLight™ Viability kit (Molecular Probes, Eugene, Oreg.) was used to assess the viability of biofilm cells exposed to different treatments. […] An excitation wavelength of 488 nm was used and the fluorescence light emitted was collected by two separate emission filters, 500-530 nm (SYTO 9, live), and 650-710 nm (propidium iodide, dead). […]

Experiment [3] concerns A. baumannii ATCC #19606. Type of experiment: cell-based, Acinetobacter baumannii. The text has this: (§1) As shown in the table below, many drug-resistant pathogens including multidrug-resistant Acinetobacter baumannii (clinical isolates) were susceptible to the bactericidal activity of the newly developed antimicrobial peptides. […] This is shown by their lower MIC and MBC against a number of antibiotic-resistant bacteria including methicillin-resistant Staphylococcus aureus, vancomycin-resistant Enterococci, and multidrug-resistant Acinetobacter baumannii. Many of these resistant strains are involved in nosocomial infections, which affect the immunocompromised and the elderly individuals with weakened defenses. The tests were done in a broth microdilution assay as described in our earlier publication (Concannon et al., 2003).

Experiment [4] relates to A. baumannii WRAMC #11. Type of experiment: cell-based, Acinetobacter baumannii.
Excerpt: as §1

Experiment [5] deals with A. baumannii WRAMC #13. Type of experiment: cell-based, Acinetobacter baumannii.
Excerpt: as §1

For experiment [6], the system named is A. baumannii WRAMC #14. Type of experiment: cell-based, Acinetobacter baumannii.
Excerpt: as §1

Experiment [7] has as its system A. baumannii WRAMC #15. Type of experiment: cell-based, Acinetobacter baumannii.
Excerpt: as §1

The subject of experiment [8] is A. baumannii WRAMC #16. Type of experiment: cell-based, Acinetobacter baumannii.
Excerpt: as §1

Experiment [9] relates to A. baumannii WRAMC #17. Type of experiment: cell-based, Acinetobacter baumannii.
Excerpt: as §1

In experiment [10] the test system is A. baumannii WRAMC #18. Type of experiment: cell-based, Acinetobacter baumannii.
Excerpt: as §1

For experiment [11], the system named is A. baumannii WRAMC #19. Type of experiment: cell-based, Acinetobacter baumannii.
Excerpt: as §1

Experiment [12] has as its system A. baumannii WRAMC #2. Type of experiment: cell-based, Acinetobacter baumannii.
Excerpt: as §1

The test system of experiment [13] is A. baumannii WRAMC #4. The class given is cell-based, Acinetobacter baumannii.
Excerpt: as §1

Experiment [14] deals with A. baumannii WRAMC #5. Type of experiment: cell-based, Acinetobacter baumannii.
Excerpt: as §1

Experiment [15] deals with A. baumannii WRAMC #8. Type of experiment: cell-based, Acinetobacter baumannii.
Excerpt: as §1

For experiment [16], the system named is MRSA ATCC #33591. The class given is cell-based, Staphylococcus aureus.
Excerpt: as §1

In experiment [17] the test system is MRSA ATCC #43300. Type of experiment: cell-based, Staphylococcus aureus.
Excerpt: as §1

In experiment [18] the test system is MRSA VVRAMC #10. Type of experiment: cell-based, Staphylococcus aureus.
Excerpt: as §1

In experiment [19] the test system is MRSA VVRAMC #1. The class given is cell-based, Staphylococcus aureus.
Excerpt: as §1

Experiment [20] deals with MRSA WRAMC #12. Type of experiment: cell-based, Staphylococcus aureus.
Excerpt: as §1

The test system of experiment [21] is MRSA WRAMC #9. Type of experiment: cell-based, Staphylococcus aureus.
Excerpt: as §1

The test system of experiment [22] is VRE ATCC #51299. Type of experiment: cell-based, Enterococci.
Excerpt: as §1

Experiment [23] deals with VRE VVRAMC #7. Type of experiment: cell-based, Enterococci.
Excerpt: as §1

Experiment [24] concerns VRE WRAMC #3. The class given is cell-based, Enterococci.
Excerpt: as §1

The test system of experiment [25] is VRE WRAMC #6. Type of experiment: cell-based, Enterococci.
Excerpt: as §1

The test system of experiment [26] is Actinomyces naeslundii. Put plainly: Adherence inhibition of tritiated A. naeslundii to saliva-coated HA disks. Type of experiment: cell-based. The following applies: disks pretreated with KSL-W 1 mg/ml; 2 hour incubation at 37° C. How it is done:
In these studies, saliva-coated HA disks pre-treated with salivary proteins, KSL-W (1 mg/ml), or chlorhexidine (1 mg/ml), were used as colonizable surfaces to test the adherence of tritiated A. naeslundii, an early colonizer that is involved in dental plaque formation. In these experiments, labeled A. naeslundii ([…] cells per ml) were incubated for 2 h with HA disks that were pre-treated with different agents.

For the molecule `[H]/N=C(\N/C(=N/[H])NCCCCCCNC(=N)NC(=N)Nc1ccc(Cl)cc1)Nc1ccc(Cl)cc1` [chlorhexidine, chlorhexidine digluconate, reference compound], in experiment [1] (intact 45-h-old biofilms, 0.12% chlorhexidine, 1 min), the “reduction of viable counts, intact biofilms” value is listed as “larger reduction of viable counts”. For the same molecule, the “viability of biofilm cells by live/dead staining” value in experiment [2] was “significantly reduced the viability of biofilm cells”.
For the molecule “benzalkonium chloride [reference compound]”, in experiment [1] (66 h-old oral biofilms, KSL 200 μg/ml, benzalkonium chloride 0.001%), the “effect on viability of intact biofilms compared to water treatment” value is listed as “less effect on the viability”. For the same molecule, in experiment [2], the “viability of biofilm cells by live/dead staining” value is given as “less impact on the viability of biofilm cells”.
For orientation: MBC means the smallest concentration meeting the test's criterion for killing. The low end stands for greater bactericidal potency, the high end for weaker bactericidal potency. The term MIC denotes the smallest concentration in the dilution series that meets the test's criterion for growth inhibition. High values mean weaker potency, low ones greater potency. As for “H-KKVVFWVKFK-NH2 [KSL-W, NH2-Lys-Lys-Val-Val-Phe-Trp-Val-Lys-Phe-Lys-CONH2]”, the MBC in [3] amounted to 100 µg/mL; in experiment [4] it was 25 µg/mL; in [5], 50 µg/mL; in [6] it was 50 µg/mL; in experiment [7], 50 µg/mL; in [8], 50 µg/mL. Also, the MBC in [9] was determined as 25 µg/mL; in experiment [10], 25 µg/mL; in experiment [11], 100 µg/mL; in experiment [12] it was 100 µg/mL; in [13] it was 25 µg/mL; in experiment [14] it was 25 µg/mL. In addition, the MBC in [15] is 25 µg/mL; in experiment [16], 200 µg/mL; in experiment [17] it was 50 µg/mL; in experiment [18], 200 µg/mL; in experiment [19] it was 100 µg/mL; in [20] it was >200 µg/mL. Moreover, the minimal bactericidal concentration (MBC) in experiment [21] was >200 µg/mL; in experiment [22] it was 200 µg/mL; in [23], 25 µg/mL; in experiment [24], 200 µg/mL; in [25] it was 100 µg/mL. Besides, the minimal inhibitory concentration (MIC) in experiment [6] turned out to be 25 µg/mL; in experiment [10] it was 12.5 µg/mL; in experiment [11], 50 µg/mL; in experiment [12], 25 µg/mL; in experiment [14] it was 12.5 µg/mL; in experiment [16], 100 µg/mL. Moreover, the minimum inhibitory concentration (MIC) turned out to be 25 µg/mL in experiment [17]; 200 µg/mL in experiment [20]; 200 µg/mL in [21]; 100 µg/mL in [22]; 100 µg/mL in experiment [24]; 12.5 µg/mL in experiment [25]. Moreover, in experiment [26], the “adherence of tritiated A. naeslundii to pretreated HA disks” value was “great reduction in the number of bacteria that attached”.
